Our source for the Activity and IC50 values is ChEMBL document CHEMBL3808324, “Promising Therapeutic Potential of P2X7 Modulators” (ACS Med Chem Lett, 2016).

Usually IC50 stands for the concentration that gives 50% inhibition.

Test [1] addresses T1, P2X purinoceptor 7 (Homo sapiens) (UniProt Q99572).
T1 sequence (whole entry): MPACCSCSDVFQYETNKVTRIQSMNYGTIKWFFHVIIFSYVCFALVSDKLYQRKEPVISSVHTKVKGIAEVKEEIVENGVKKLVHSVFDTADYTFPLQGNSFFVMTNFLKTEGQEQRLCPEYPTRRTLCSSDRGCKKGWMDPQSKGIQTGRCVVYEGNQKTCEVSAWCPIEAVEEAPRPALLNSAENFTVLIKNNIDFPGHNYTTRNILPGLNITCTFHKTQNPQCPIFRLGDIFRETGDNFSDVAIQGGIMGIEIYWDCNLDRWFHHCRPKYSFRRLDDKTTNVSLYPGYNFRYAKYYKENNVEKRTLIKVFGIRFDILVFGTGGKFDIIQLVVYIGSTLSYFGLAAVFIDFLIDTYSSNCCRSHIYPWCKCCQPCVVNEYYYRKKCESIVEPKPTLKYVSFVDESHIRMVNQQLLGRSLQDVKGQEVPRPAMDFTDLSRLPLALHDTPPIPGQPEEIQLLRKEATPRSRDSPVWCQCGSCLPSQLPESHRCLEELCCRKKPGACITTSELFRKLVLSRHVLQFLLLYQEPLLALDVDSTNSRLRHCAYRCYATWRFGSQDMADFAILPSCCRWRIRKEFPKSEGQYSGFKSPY
Description: Antagonist activity against ATP-gated P2X7 receptor in LPS-stimulated human PBMC assessed as reduction in P2X7 agonist 2'(3')-O-(4-benzoylbenzoyl) adenosine 5'-triphosphate-induced IL-1beta at 10 uM incubated for 30 mins after 1 hr pre-treatment with LPS followed by Bz-ATP-stimulation for 1.5 hrs by ELISA. On the set-up: scale not given: the % may be the effect or the level left.

The next test has as its target T2, P2X purinoceptor 7 (Rattus norvegicus, UniProt Q64663).
T2 sequence (Q64663 whole entry): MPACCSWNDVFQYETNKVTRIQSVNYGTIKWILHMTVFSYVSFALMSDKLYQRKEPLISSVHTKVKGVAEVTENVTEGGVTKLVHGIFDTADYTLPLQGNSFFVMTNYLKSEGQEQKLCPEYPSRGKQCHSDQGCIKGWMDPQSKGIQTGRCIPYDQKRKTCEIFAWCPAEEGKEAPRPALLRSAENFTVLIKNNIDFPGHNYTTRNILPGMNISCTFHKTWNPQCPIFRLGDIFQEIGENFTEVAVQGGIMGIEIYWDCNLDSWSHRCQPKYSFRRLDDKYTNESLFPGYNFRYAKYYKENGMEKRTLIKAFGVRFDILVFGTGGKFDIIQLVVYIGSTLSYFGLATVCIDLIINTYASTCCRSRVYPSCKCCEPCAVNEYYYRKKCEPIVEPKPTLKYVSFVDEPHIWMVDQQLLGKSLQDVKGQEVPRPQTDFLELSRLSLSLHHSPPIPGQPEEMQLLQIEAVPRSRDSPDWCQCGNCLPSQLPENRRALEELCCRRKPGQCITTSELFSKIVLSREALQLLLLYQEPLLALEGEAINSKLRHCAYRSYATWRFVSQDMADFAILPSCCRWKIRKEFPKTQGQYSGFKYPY
Description: Antagonist activity against rat recombinant ATP-gated P2X7 receptor expressed in human 1321N1 cells assessed as reduction in BzATP -induced Ca2+ flux pre-incubated for 30 mins before BzATP addition by calcium-4 dye based FLIPR assay. Format: cell-based. For orientation: Calcium flux is commonly read through the fluorescence of an indicator in the cells.

The target of test [2] is T1, P2X purinoceptor 7 (Homo sapiens). Description: Antagonist activity against ATP-gated P2X7 receptor in LPS-stimulated human PBMC assessed as reduction in P2X7 agonist 2'(3')-O-(4-benzoylbenzoyl) adenosine 5'-triphosphate-induced IL-1beta at 1 uM incubated for 30 mins after 1 hr pre-treatment with LPS followed by Bz-ATP-stimulation for 1.5 hrs by ELISA. On the set-up: scale not given: the % may be the effect or the level left. In general terms: An ELISA detects its analyte on a solid surface through an enzyme-linked reagent.

Consider `COc1cccc(C(=O)N2Cc3nc(C)nc(-c4ccn[nH]4)c3CC2C)c1F` (stereo not drawn), for which, in test [1], the Activity is 2%. Further, on P2X purinoceptor 7, the IC50 was 1460 nM. As to `Cc1nc2c(c(-c3c(C)noc3C)n1)CCN(C(=O)c1cccc(C(F)(F)F)c1Cl)C2`, the Activity in test [2] is 104%; in test [1], 100%. For the molecule `O=C(c1cccc(Cl)c1Cl)N1CCc2c(ncnc2-n2nccn2)C1`, the Activity in test [2] turned out to be 71.8%.

In the case of `Cc1nc2c(c(-c3ccn[nH]3)n1)C[C@@H](C)N(C(=O)c1ccc(F)c(C(F)(F)F)c1Cl)C2` (single isomer, unassigned), in test [1], the Activity is -6.1%. Consider `O=C(c1cccc(Cl)c1Cl)N1CCc2c(ncnc2-c2ccn[nH]2)C1`, for which, in test [2], the Activity came to 14.2%. In the case of `O=C(c1cccc(C(F)(F)F)c1Cl)N1CCc2c(ncnc2-c2ccccn2)C1`, the Activity in test [2] was found to be 26.9%.
